Measured values taken from ChEMBL document CHEMBL5385957, “Pleonotoquinones, Cytotoxic Oxepinenaphthoquinones from Pleonotoma jasminifolia” (J Nat Prod, 2024).

Key:
HepG2 = assay: Cytotoxicity against human HepG2 cells assessed as cell growth inhibition; assay type: functional, cell-based
[1] = Cytotoxicity against human MRC5 cells assessed as cell growth inhibition; assay type: toxicity, cell-based
[2] = Selectivity index, ratio of IC50 for human MRC5 cells to IC50 for human HepG2 cells; assay type: toxicity; settings: MRC5 cells versus HepG2 cells, read-out: Ratio IC50
[3] = Selectivity index, ratio of IC50 for human MRC5 cells to IC50 for human HCT-116 cells; assay type: toxicity; settings: MRC5 cells versus HCT-116 cells, read-out: Ratio IC50
HCT-116 = assay: Cytotoxicity against human HCT-116 cells assessed as cell growth inhibition; assay type: functional, cell-based

Compound | IC50 (HepG2) | IC50 [1] | selectivity ratio [2] | selectivity ratio [3] | IC50 (HCT-116)
COc1cccc2c1C(=O)c1c(O)c3c(c(O)c1C2=O)C[C@@](O)(C(=O)CO)C[C@@H]3O[C@H]1C[C@H](N)[C@H](O)[C@H](C)O1 [DOXORUBICIN] | 0.7 µM | 3.5 µM | – | – | –
COc1c(O)ccc2c(=O)c3cccc(C)oc=3c(=O)c12 | 1.9 µM | 8.2 µM | 4.1 | 3.1 | 2.6 µM
COc1ccc2c(=O)c3cccc(C)oc=3c(=O)c2c1OC | 6.4 µM | > 10 µM | 1.9 | 2.9 | 4.3 µM
COc1c(O)ccc2c1C(=O)c1cc(C)ccc1C2=O | > 10 µM | > 10 µM | – | – | > 10 µM
COc1ccc2c(c1OC)C(=O)c1cc(C)ccc1C2=O | > 10 µM | > 10 µM | – | – | > 10 µM
